Reference: PubChem BioAssay (NCI)
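Tested at 5 concentrations; 48 h exposure; 96-well plates; endpoints linearly interpolated, else capped at highest concentration. The concentration for 50% growth inhibition is given as GI50. At the TGI there is no net growth.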

Key:
Experiment in all cases: growth of human tumour cells (NCI), 48 h
[1] = system: MCF7 breast
[2] = system: U251 CNS
[3] = system: ACHN renal
[4] = system: CAKI-1 renal
[5] = system: UO-31 renal
[6] = system: SK-MEL-28 melanoma
[7] = system: T-47D breast
[8] = system: SF-539 CNS
[9] = system: DU-145 prostate
[10] = system: MDA-MB-231 breast
[11] = system: SNB-19 CNS
[12] = system: MALME-3M melanoma
[13] = system: 786-0 renal
[14] = system: HL-60(TB) leukemia
[15] = system: BT-549 breast
[16] = system: SK-MEL-5 melanoma
[17] = system: TK-10 renal
[18] = system: MOLT-4 leukemia

Row | SMILES | TGI [1] | TGI [2] | TGI [3] | TGI [4] | TGI [5] | TGI [6] | TGI [7] | TGI [8] | TGI [9] | TGI [10] | TGI [11] | TGI [12] | TGI [13] | TGI [14] | TGI [15] | TGI [16] | TGI [17] | TGI [18] | GI50 [3] | GI50 [12]
1 | COC(=O)/C=C(/C(=O)OC)c1cc2ccc3c([nH]c4ccccc43)c(C)c-2c1 | 13.3 µM | 18.1 µM | > 100 µM | > 100 µM | 17.1 µM | 30.2 µM | > 100 µM | 31.5 µM | 42.2 µM | 15.1 µM | 23.2 µM | 19.6 µM | 20.1 µM | 12.5 µM | 23.1 µM | 9.18 µM | > 100 µM | 11.5 µM |  | 
2 | COc1ccc(P2(=S)SP(=S)(c3ccc(Cl)cc3)S2)cc1 (stereo unspecified) | > 100 µM | > 100 µM | > 100 µM | > 100 µM | > 100 µM | > 100 µM | > 100 µM | > 100 µM | > 100 µM | > 100 µM | > 100 µM | > 100 µM | > 100 µM | > 100 µM | > 100 µM | > 100 µM | > 100 µM | > 100 µM |  | 
3 | C=CCc1cc(C=C(C#N)C#N)cc(OC)c1O | > 100 µM | > 100 µM | > 100 µM | > 100 µM | > 100 µM | > 100 µM | > 100 µM | > 100 µM | > 100 µM | > 100 µM | > 100 µM | > 100 µM | > 100 µM | 89.1 µM | > 100 µM | > 100 µM | > 100 µM | > 100 µM |  | 
4 | CCOC(=O)NC(C(=O)OCC)(N1CCN(c2cc3c(cc2F)c(=O)c(C(=O)O)cn3CC)CC1)C(F)(F)F (stereo unspecified) | > 100 µM | > 100 µM | > 100 µM | > 100 µM | > 100 µM | 0.533 µM | > 100 µM | > 100 µM | > 100 µM | > 100 µM | > 100 µM | > 100 µM | > 100 µM | > 100 µM | > 100 µM | > 100 µM | > 100 µM | > 100 µM |  | 
5 | COc1ccc(-c2nnc3n(Cc4ccccc4)c4ccccc4n3c2=O)cc1 | > 100 µM | 55 µM | 99.5 µM | 45 µM | > 100 µM | > 100 µM | > 100 µM | 34.3 µM | > 100 µM | > 100 µM | 80 µM | > 100 µM | 25.1 µM | > 100 µM | > 100 µM | > 100 µM | 58.1 µM | > 100 µM |  | 
6 | Cc1cc(S(=O)(=O)NC2=NC(c3ccccc3)c3cc(Cl)ccc3N2)c(S)cc1Cl (stereo unspecified) | > 100 µM | > 100 µM | > 100 µM | > 100 µM | 83.7 µM | > 100 µM | > 100 µM | > 100 µM | > 100 µM | > 100 µM | > 100 µM | > 100 µM | > 100 µM | > 100 µM | > 100 µM | > 100 µM | > 100 µM | > 100 µM |  | 
7 | c1ccc(-c2nnc(SCc3c[nH]c4ccccc34)n2-c2ccccc2)cc1 | > 100 µM | > 100 µM | > 100 µM | > 100 µM | > 100 µM | > 100 µM | > 100 µM | 70.3 µM | > 100 µM | > 100 µM | > 100 µM | > 100 µM | > 100 µM | > 100 µM | 98.7 µM | 61 µM | 64.1 µM | > 100 µM |  | 
8 | CC(C)COC(=O)OC(=O)c1ccc(N(C)Cc2cnc3nc(N)nc(N)c3n2)cc1 | > 100 µM | > 100 µM | > 79.4 µM | > 100 µM | > 100 µM | > 100 µM | > 100 µM | > 51.8 µM | > 100 µM | > 100 µM | > 100 µM | > 100 µM | > 100 µM | > 100 µM | 97.8 µM | > 93.9 µM | > 100 µM | > 100 µM |  | 
9 | CO/C(=C/C(=O)C(Cl)(Cl)Cl)CC/C(=C\C(=O)C(Cl)(Cl)Cl)OC | 79.8 µM | 54.7 µM | 65.2 µM | 72.2 µM | 43.4 µM | 80.5 µM | 72.5 µM | 63.2 µM | 56.7 µM | > 100 µM | > 100 µM | 66.4 µM | 60.4 µM | 80.5 µM | 83.2 µM | > 100 µM | 73.2 µM | > 100 µM |  | 
10 | O=C(NNCC(F)(F)F)c1ccncc1 | > 100 µM | > 100 µM | > 100 µM | > 100 µM | > 100 µM | > 100 µM | > 100 µM | > 100 µM | > 100 µM | > 100 µM | > 100 µM | > 100 µM | > 100 µM | > 100 µM | > 100 µM | > 100 µM | > 100 µM | > 100 µM |  | 
11 | COc1c2c(cc3c1OCO3)C13C=CC(OC)CC1N(CC3)C2 (stereo unspecified) | > 100 µM | > 100 µM | > 100 µM | > 100 µM | > 100 µM | > 100 µM | > 100 µM | > 100 µM | > 100 µM | > 100 µM | > 100 µM | > 100 µM | > 100 µM | > 100 µM | > 100 µM | > 100 µM | > 100 µM | > 100 µM |  | 
12 | Cc1ccc(C2N=C(N)NC3=C2CCOc2c3ccc3ccccc23)cc1 (stereo unspecified) | > 51.5 µM | > 66.9 µM | > 73.7 µM | 28.5 µM | > 100 µM | > 100 µM | > 65.3 µM | 44.7 µM | > 85.4 µM | 32.7 µM | > 100 µM | > 40.6 µM | > 71.7 µM | 19 µM | > 79.8 µM | 30.9 µM | > 80.3 µM | > 74.8 µM | 16.6 µM | 4.7 µM
13 | Cn1cc(S(=O)(=O)NC(=O)Nc2ccc(Cl)cc2)c2ccccc21 | > 100 µM | > 100 µM | > 100 µM | 81 µM | > 100 µM | > 100 µM | > 100 µM | > 100 µM | > 100 µM | > 100 µM | > 100 µM | > 100 µM | > 100 µM | > 100 µM | > 100 µM | > 100 µM | 55.2 µM | > 100 µM |  | 
14 | Cc1ccc(S(=O)(=O)N2c3ccccc3[C@H]3CCC=C[C@H]32)cc1 | > 100 µM | 27.2 µM | > 93.3 µM | > 100 µM | 34.9 µM | > 96.1 µM | > 100 µM | 34 µM | > 100 µM | > 100 µM | > 100 µM | 39 µM | > 100 µM | 28.8 µM | > 100 µM | > 97.5 µM | > 100 µM | > 73.8 µM |  | 
15 | S=C(N/N=C/c1ccccn1)Nc1ccc(Cl)cc1 | > 100 µM | 8.3 µM | 1.66 µM | 30.5 µM | 1.09 µM | > 100 µM | > 100 µM | 14.4 µM | > 100 µM | > 100 µM | > 39 µM | > 29 µM | 16.1 µM | 0.0796 µM | > 68.1 µM | 15.5 µM | > 96 µM | > 100 µM |  | 
16 | COc1cccc(CCNc2c(C#N)c3nc4ccccc4n3c3ccccc23)c1 | > 100 µM | > 100 µM | > 100 µM | > 100 µM | > 100 µM | > 100 µM | > 52.6 µM | > 100 µM | > 41.1 µM | > 100 µM | > 86 µM | > 100 µM | > 75.9 µM | > 100 µM | > 100 µM | 0.872 µM | > 100 µM | > 100 µM |  | 
17 | Cc1cc(=O)[nH]c2cc(NC(=O)C(CCCN=C(N)N)NC(=O)OCc3ccccc3)ccc12 (stereo unspecified) | > 100 µM | > 100 µM | > 100 µM | > 100 µM | > 100 µM | > 100 µM | > 100 µM | > 100 µM | > 100 µM | > 100 µM | > 100 µM | > 100 µM | > 100 µM | > 100 µM | > 100 µM | > 100 µM | > 100 µM | > 100 µM |  | 
18 | C[N+](C)(C)/N=C/c1ccc(O)c(O)c1 | > 100 µM | > 100 µM | > 100 µM | > 100 µM | > 100 µM | > 96.4 µM | > 100 µM | > 100 µM | > 100 µM | > 100 µM | > 100 µM | > 100 µM | > 100 µM | > 100 µM | > 100 µM | > 100 µM | > 100 µM | > 100 µM |  | 
19 | COc1cc(OC)c2c(=O)c(OC)c(-c3ccc4c(c3)OCO4)oc2c1OC | > 100 µM | > 100 µM | > 100 µM | > 100 µM | > 100 µM | > 100 µM | > 100 µM | > 100 µM | > 100 µM | > 100 µM | > 100 µM | > 100 µM | > 100 µM | 40.4 µM | > 100 µM | 89.8 µM | > 100 µM | > 100 µM |  | 
20 | COC(=O)C(Cc1ccccc1)NP(=O)(O)OCC1OC(n2cc(I)c(=O)[nH]c2=O)CC1O (stereo unspecified) | > 100 µM | > 100 µM | > 100 µM | > 100 µM | > 100 µM | > 100 µM | > 100 µM | > 100 µM | > 100 µM | > 100 µM | > 100 µM | > 100 µM | > 100 µM | > 100 µM | > 100 µM | > 100 µM | > 100 µM | > 100 µM |  | 
21 | CC(C)(C)OC(=O)NCCC(=O)NC1(c2cc3ccccc3s2)CCCCC1 | 41 µM | 37.7 µM | 61.4 µM | 48.6 µM | 30.5 µM | 35 µM | 33.3 µM | 29.2 µM | 33.6 µM | 38.4 µM | 37.1 µM | 37.5 µM | 35.7 µM | 35.1 µM | 32.5 µM | 25.9 µM | 55.4 µM | 28.5 µM |  | 
22 | O=C(O)CC1NC(/C(=C/c2ccccc2O)NC(=O)c2ccccc2)OC1=O (stereo unspecified) | > 100 µM | > 80.8 µM | > 51 µM | > 100 µM | > 63.6 µM | > 100 µM | > 100 µM | 66.9 µM | > 100 µM | > 68.3 µM | 49.5 µM | > 100 µM | > 100 µM | > 100 µM | 52 µM | > 100 µM | > 100 µM | > 100 µM |  | 
23 | CCCCCCCNC(P(=O)(O)O)P(=O)(O)O | > 100 µM | > 100 µM | > 100 µM | > 100 µM | > 100 µM | > 100 µM | > 100 µM | > 100 µM | > 100 µM | > 100 µM | > 100 µM | > 100 µM | > 100 µM | > 100 µM | > 100 µM | > 100 µM | > 100 µM | > 100 µM |  | 
